# Source: ChEMBL document CHEMBL5532691, “Anti-cancer activity and mechanism of flurbiprofen organoselenium compound RY-1-92 in non-small cell lung cancer” (RSC Med Chem, 2024)
# Calls of active or inactive are those of the source. No cut-off for these calls is given here.
# Key:
# NCI-H460 [1] = assay: Induction of cell cycle arrest in human NCI-H460 cells assessed as accumulation of cells as G1 phase at 30 uM measured after 24 hrs by propidium iodide staining based flow cytometry analysis (reference value: 84.54%); type: functional
# NCI-H460 [2] = assay: Induction of apoptosis in human NCI-H460 cells assessed as early apoptotic cells at 10 uM measured after 48 hrs by annexin V-FITC/PI staining based flow cytometry analysis (reference value: 0.32%); type: functional
# A549 [3] = assay: Induction of apoptosis in human A549 cells assessed as late apoptotic cells at 10 uM measured after 48 hrs by annexin V-FITC/PI staining based flow cytometry analysis (reference value: 15.12%); type: functional
# A549 [4] = assay: Induction of apoptosis in human A549 cells assessed as necrotic cells at 30 uM measured after 48 hrs by annexin V-FITC/PI staining based flow cytometry analysis (reference value: 4.03%); type: functional
# A549 [5] = assay: Induction of apoptosis in human A549 cells assessed as viable cells at 30 uM measured after 48 hrs by annexin V-FITC/PI staining based flow cytometry analysis (reference value: 80.26%); type: functional; conditions: read-out: Activity
# A549 [6] = assay: Downregulation of cyclin B1 protein expression in human A549 cells at 10 to 30 uM by Western blot analysis; type: functional, cell-based; conditions: dose 10-30 µM
# A549 [7] = assay: Induction of apoptosis in human A549 cells assessed as early apoptotic cells at 30 uM measured after 48 hrs by annexin V-FITC/PI staining based flow cytometry analysis (reference value: 0.59%); type: functional
# NCI-H460 [8] = assay: Induction of cell cycle arrest in human NCI-H460 cells assessed as accumulation of cells as S phase at 10 uM measured after 24 hrs by propidium iodide staining based flow cytometry analysis (reference value: 7.09%); type: functional
# NCI-H460 [9] = assay: Upregulation of Bax/Bcl2 ratio in human NCI-H460 cells at 10 to 30 uM by Western blot analysis; type: functional, cell-based; conditions: dose 10-30 µM
# A549 [10] = assay: Downregulation of AKT phosphorylation expression in human A549 cells at 10 to 30 uM by Western blot analysis; type: functional, cell-based; conditions: dose 10-30 µM
# NCI-H460 [11] = assay: Downregulation of ERK phosphorylation expression in human NCI-H460 cells at 10 to 30 uM by Western blot analysis; type: functional, cell-based; conditions: dose 10-30 µM
# NCI-H460 [12] = assay: Induction of apoptosis in human NCI-H460 cells assessed as early apoptotic cells at 30 uM measured after 48 hrs by annexin V-FITC/PI staining based flow cytometry analysis (reference value: 0.32%); type: functional
# A549 [13] = assay: Induction of cell cycle arrest in human A549 cells assessed as accumulation of cells as G2 phase at 30 uM measured after 24 hrs by propidium iodide staining based flow cytometry analysis (reference value: 8.69%); type: functional
# A549 [14] = assay: Induction of apoptosis in human A549 cells assessed as necrotic cells at 10 uM measured after 48 hrs by annexin V-FITC/PI staining based flow cytometry analysis (reference value: 4.03%); type: functional
# Lewis lung carcinoma [15] = assay: Antitumor activity against mouse Lewis lung carcinoma cell line xenografted in C57BL/6 mouse model assessed as decrease in bcl-2 protein expression at 10 to 20 mg/kg by Western blot analysis; type: functional, organism-based; conditions: dose 10-20 mg/kg
# A549 [16] = assay: Induction of cell cycle arrest in human A549 cells assessed as accumulation of cells as G2 phase at 10 uM measured after 24 hrs by propidium iodide staining based flow cytometry analysis (reference value: 8.69%); type: functional
# A549 [17] = assay: Inhibition of cell migration in human A549 cells at 10 to 30 uM measured after 24 hrs by wound healing assay relative to control; type: functional; conditions: dose 10-30 µM
# A549 [18] = assay: Downregulation of P38 phosphorylation expression in human A549 cells at 10 to 30 uM by Western blot analysis; type: functional, cell-based; conditions: dose 10-30 µM
# NCI-H460 [19] = assay: Downregulation of P38 phosphorylation expression in human NCI-H460 cells at 10 to 30 uM by Western blot analysis; type: functional, cell-based; conditions: dose 10-30 µM
# NCI-H460 [20] = assay: Downregulation of JNK phosphorylation expression in human NCI-H460 cells at 10 to 30 uM by Western blot analysis; type: functional, cell-based; conditions: dose 10-30 µM
# A549 [21] = assay: Upregulation of Bax/Bcl2 ratio in human A549 cells at 10 to 30 uM by Western blot analysis; type: functional, cell-based; conditions: dose 10-30 µM
# A549 [22] = assay: Inhibition of colony formation in human A549 cells at 10 uM measured after 48 hrs by giemsa staining based analysis relative to control; type: functional
# A549 [23] = assay: Downregulation of TRPV1 expression level in human A549 cells at 10 to 30 uM by Western blot analysis; type: functional, cell-based; conditions: dose 10-30 µM
# NCI-H460 [24] = assay: Downregulation of AKT phosphorylation expression in human NCI-H460 cells at 10 to 30 uM by Western blot analysis; type: functional, cell-based; conditions: dose 10-30 µM
# A549 [25] = assay: Upregulation of Bax protein expression in human A549 cells at 10 to 30 uM by Western blot analysis; type: functional, cell-based; conditions: dose 10-30 µM
# NCI-H460 [26] = assay: Induction of apoptosis in human NCI-H460 cells assessed as late apoptotic cells at 10 uM measured after 48 hrs by annexin V-FITC/PI staining based flow cytometry analysis (reference value: 5.41%); type: functional
# BEAS-2B = assay: Cytotoxicity against human BEAS-2B cells assessed as reduction in cell viability at 3 to 300 uM measured after 48 hrs by MTT assay; type: toxicity, cell-based; conditions: dose 3-300 µM
# NCI-H460 [27] = assay: Induction of apoptosis in human NCI-H460 cells assessed as viable cells at 10 uM measured after 48 hrs by annexin V-FITC/PI staining based flow cytometry analysis (reference value: 91.81%); type: functional; conditions: read-out: Activity
# NCI-H460 [28] = assay: Downregulation of TRPV1 expression level in human NCI-H460 cells at 10 to 30 uM by Western blot analysis; type: functional, cell-based; conditions: dose 10-30 µM
# NCI-H460 [29] = assay: Downregulation of CDK1 protein expression in human NCI-H460 cells at 30 uM by Western blot analysis; type: functional, cell-based
# Lewis lung carcinoma [30] = assay: Antitumor activity against mouse Lewis lung carcinoma cell line xenografted in C57BL/6 mouse model assessed as reduction in tumor volume at 10 to 20 mg/kg, ip measured every three days for 15 days by vernier caliper analysis; type: functional, organism-based; conditions: dose 10-20 mg/kg, time 15.0 day
smiles,measurement,setting,value
CC(C(=O)NCCC[Se]C(F)(F)F)c1ccc(-c2ccccc2)c(F)c1 (stereo unspecified),Activity,NCI-H460 [1],5.73%
same,Activity,NCI-H460 [2],0.36%
same,Activity,A549 [3],20.25%
same,Activity,A549 [4],8.86%
same,viability at 30 µM,A549 [5],55%
same,Activity,A549 [6],Active
same,Activity,A549 [7],1.13%
same,Activity,NCI-H460 [8],10.6%
same,Activity,NCI-H460 [9],Active
same,Activity,A549 [10],Active
same,Activity,NCI-H460 [11],Active
same,Activity,NCI-H460 [12],1.97%
same,Activity,A549 [13],39.92%
same,Activity,A549 [14],3.99%
same,Activity,Lewis lung carcinoma [15],Active
same,Activity,A549 [16],9.29%
same,inhibition (INH),A549 [17],62.9%
same,Activity,A549 [18],Active
same,Activity,NCI-H460 [19],Active
same,Activity,NCI-H460 [20],Active
same,Activity,A549 [21],Active
same,inhibition at 10 µM,A549 [22],45%
same,Activity,A549 [23],Active
same,Activity,NCI-H460 [24],Active
same,Activity,A549 [25],Active
same,Activity,NCI-H460 [26],6.97%
same,Activity,BEAS-2B,Toxic
same,viability at 10 µM,NCI-H460 [27],91%
same,Activity,NCI-H460 [28],Active
same,Activity,NCI-H460 [29],Active
same,Activity,Lewis lung carcinoma [30],Active
